Earlier results in patent publication US8604163B2, “EEF2K assays for identifying compounds that inhibit EEF2K activity” (University of Medicine and Dentistry of New Jersey, priority 2009, dated 2013).

Tested on: glioma cell lines
Details: by inhibiting eEF2-K; Parmer et al. 1997

## CC(=O)c1c(O)c(C)c(O)c(Cc2c(O)c3c(c(C(=O)/C=C/c4ccccc4)c2O)OC(C)(C)C=C3)c1O [rottlerin]
  growth of glioma cell lines: inhibit growth of glioma cell lines
